Structures can show the parent of a compound that is named as a salt.
biological target: T1, intracellular domain of DDR1 (Homo sapiens, UniProt Q08345); assay: Evaluation of DDR1 inhibition activity with HTRF KinEASE-TK kit; type: biochemical; conditions: intracellular domain of DDR1 5 ng/μL, ATP 25 mol/L (so in the source), TK Substrate-biotin 1000 nmol/L, room temperature, one hour
T1 construct: the intracellular domain of DDR1 (in a final concentration of 5 ng/μL) (Carna Biosciences, Inc.); purchased Carna Biosciences, Inc
Procedure: The DDR1 inhibition activity of the compounds of Examples 1 to 51 was evaluated with HTRF® KinEASE-TK kit (Cisbio Bioassays).
Each test substance was dissolved in dimethyl sulfoxide (hereinafter referred to as DMSO) and then used for the evaluation as described below. Moreover, each of test substances and reagents was diluted in the kinase buffer (Cisbio Bioassays) prepared by adding thereto MgCl2, MnCl2, DTT, and the Supplemental Enzyme buffer (Cisbio Bioassays) to concentrations of 5 mmol/L, 0.5 mmol/L, 0.25 mmol/L, and 50 nmol/L, respectively, and then used. Each test substance (in DMSO in a final concentration of 1%), the intracellular domain of DDR1 (in a final concentration of 5 ng/μL) (Carna Biosciences, Inc.), the phosphate donor ATP (in final concentration of 25 mol/L) (Sigma), and the substrate TK Substrate-biotin (in a final concentration of 1000 nmol/L) (Cisbio Bioassays) were added to a 384-well black plate (Corning) and allowed to react at room temperature for one hour. After completion of the reaction, the TK Antibody-Cryptate (Cisbio Bioassays) and the Streptavidin-XL665 (Cisbio Bioassays) were added thereto and allowed to react at room temperature for one hour. In addition, the plate was provided with a well to which a test substance was not added, and with a well to which the intracellular domain of DDR1 and a test substance were not added.
The fluorescence intensity in each well was measured using a multi-label counter (Envision, PerkinElmer; excitation wavelength: 320 nm, measurement wavelength: 665 nm and 620 nm) to calculate a Ratio (the fluorescence intensity at 665 nm/the fluorescence intensity at 620 nm). The inhibition rate (%) of a test substance at each concentration was calculated based on the formula below. Inhibition rate (%)=([the Ratio obtained from the well containing no test substance]−[the Ratio from a well containing a test substance])/([the Ratio obtained from the well containing no test substance]−[the Ratio obtained from the well containing no intracellular domain of DDR1 and no test substance])×100
The calculated inhibition rates were fitted to a sigmoidal dose-response curve by regression analysis using the Prism 5.04 (GraphPad Software, Inc.) to calculate the ICso0 value of the test substance.

T1 sequence (Q08345 444-876 isoform Q08345-2 limits assumed): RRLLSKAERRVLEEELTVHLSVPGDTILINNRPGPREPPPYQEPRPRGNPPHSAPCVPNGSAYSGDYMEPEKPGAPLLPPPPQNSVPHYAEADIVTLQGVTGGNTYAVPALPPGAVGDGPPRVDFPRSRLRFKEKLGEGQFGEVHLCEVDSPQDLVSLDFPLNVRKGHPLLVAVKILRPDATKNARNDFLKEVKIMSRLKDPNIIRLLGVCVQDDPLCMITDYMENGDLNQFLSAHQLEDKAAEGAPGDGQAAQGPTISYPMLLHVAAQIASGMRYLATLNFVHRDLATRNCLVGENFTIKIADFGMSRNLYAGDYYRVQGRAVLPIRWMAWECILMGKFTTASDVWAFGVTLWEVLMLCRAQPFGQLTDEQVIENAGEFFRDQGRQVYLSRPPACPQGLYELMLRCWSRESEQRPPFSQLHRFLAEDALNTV

Row | Compound | IC50 [nM]
1 | COc1ccc(S(F)(F)(F)(F)F)cc1NC(=O)NCc1ccccc1OCc1ccncc1 [Compound of Example 1] | 52.1
2 | COc1ccc(OC(F)(F)F)cc1NC(=O)NCc1ccccc1OCc1cccnc1 [Compound of Example 3] | 838
3 | COc1ccc(OC(F)(F)F)cc1NC(=O)NCc1ccccc1OCc1ccncc1 [Compound of Example 4] | 51.7
4 | COc1ccc(OC(F)(F)F)cc1NC(=O)NCc1ccccc1OCc1ccnc(C(N)=O)c1 [Compound of Example 5, 4-((2-((3-(2-methoxy-5-(trifluoromethoxy)phenyl)ureido)methyl)phenoxy)methyl)picolinamide] | 47
5 | COC(=O)c1ccc(COc2ccccc2CNC(=O)Nc2cc(OC(F)(F)F)ccc2OC)cc1 [Compound of Example 7, methyl 4-((2-((3-(2-methoxy-5-(trifluoromethoxy)phenyl)ureido)methyl)phenoxy)methyl)benzoate] | 585
6 | COc1ccc(OC(F)(F)F)cc1NC(=O)NCc1ccccc1OCc1ccc(C(=O)O)cc1 [Compound of Example 8, 4-((2-((3-(2-methoxy-5-(trifluoromethoxy)phenyl)ureido)methyl)phenoxy)methyl)benzoic acid] | 172
7 | COc1ccc(OC(F)(F)F)cc1NC(=O)NCc1ccccc1OCc1cccc(C(=O)O)c1 [Compound of Example 9, 3-((2-((3-(2-methoxy-5-(trifluoromethoxy)phenyl)ureido)methyl)phenoxy)methyl)benzoic acid] | 137
8 | COC(=O)c1ccc(COc2ccccc2CNC(=O)Nc2cc(C(F)(F)F)cc(CO)c2OC)cc1 [Compound of Example 10, methyl 4-((2-((3-(3-(hydroxymethyl)-2-methoxy-5-(trifluoromethyl)phenyl)ureido)methyl)phenoxy)methyl)benzoate] | 156
9 | COc1c(CO)cc(C(F)(F)F)cc1NC(=O)NCc1ccccc1OCc1ccc(C(=O)O)cc1 [Compound of Example 11, 4-((2-((3-(3-(hydroxymethyl)-2-methoxy-5-(trifluoromethyl)phenyl)ureido)methyl)phenoxy)methyl)benzoic acid] | 150
10 | COc1ccc(OC(F)(F)F)cc1NC(=O)NCc1ccccc1OCc1ccc(C(N)=O)cc1 [Compound of Example 12, 4-((2-((3-(2-methoxy-5-(trifluoromethoxy)phenyl)ureido)methyl)phenoxy)methyl)benzamide] | 38.6
11 | CNC(=O)c1ccc(COc2ccccc2CNC(=O)Nc2cc(OC(F)(F)F)ccc2OC)cc1 [Compound of Example 13, 4-((2-((3-(2-methoxy-5-(trifluoromethoxy)phenyl)ureido)methyl)phenoxy)methyl)-N-methylbenzamide] | 96.4
12 | COc1ccc(OC(F)(F)F)cc1NC(=O)NCc1ccccc1OCc1ccc(C(=O)N(C)C)cc1 [Compound of Example 14, 4-((2-((3-(2-methoxy-5-(trifluoromethoxy)phenyl)ureido)methyl)phenoxy)methyl)-N,N-dimethylbenzamide] | 156
13 | CCN(CC)CCNC(=O)c1ccc(COc2ccccc2CNC(=O)Nc2cc(OC(F)(F)F)ccc2OC)cc1 [Compound of Example 15, N-(2-(diethylamino)ethyl)-4-((2-((3-(2-methoxy-5-(trifluoromethoxy)phenyl)ureido)methyl)phenoxy)methyl)benzamide] | 308
14 | COc1ccc(OC(F)(F)F)cc1NC(=O)NCc1ccccc1OCc1ccc(C(=O)NCCN(C)C)cc1 [Compound of Example 16, N-(2-(dimethylamino)ethyl)-4-((2-((3-(2-methoxy-5-(trifluoromethoxy)phenyl)ureido)methyl)phenoxy)methyl)benzamide] | 163
15 | CNCCNC(=O)c1ccc(COc2ccccc2CNC(=O)Nc2cc(OC(F)(F)F)ccc2OC)cc1 [Compound of Example 17, 4-((2-((3-(2-methoxy-5-(trifluoromethoxy)phenyl)ureido)methyl)phenoxy)methyl)-N-(2-(methylamino)ethyl)benzamide] | 185
16 | NC(=O)c1ccc(COc2ccccc2CNC(=O)Nc2cccc(C(F)(F)F)c2)cc1 [Compound of Example 19, 4-((2-((3-(3-(trifluoromethyl)phenyl)ureido)methyl)phenoxy)methyl)benzamide] | 37.4
17 | COc1ccc(C(F)(F)F)cc1NC(=O)NCc1ccccc1OCc1cccc(C(N)=O)c1 [Compound of Example 21, 3-((2-((3-(2-methoxy-5-(trifluoromethyl)phenyl)ureido)methyl)phenoxy)methyl)benzamide] | 67.4
18 | COc1ccc(S(F)(F)(F)(F)F)cc1NC(=O)NCc1ccccc1Oc1ccncc1 [Compound of Example 23, 1-(2-methoxy-5-(pentafluorosulfanyl)phenyl)-3-(2-(pyridin-4-yloxy)benzyl)urea hydrochloride] | 78.7
19 | COc1ccc(S(F)(F)(F)(F)F)cc1NC(=O)NCc1ccccc1Oc1ccnc(-n2ccnc2)n1 [Compound of Example 24, 1-(2-((2-(1H-imidazol-1-yl)pyrimidin-4-yl)oxy)benzyl)-3-(2-methoxy-5-(pentafluorosulfanyl)phenyl)urea] | 42.2
20 | COC(=O)c1ccc(Oc2ccccc2CNC(=O)Nc2cc(OC(F)(F)F)ccc2OC)cc1 [Compound of Example 25] | 194
21 | COc1ccc(OC(F)(F)F)cc1NC(=O)NCc1ccccc1Oc1ccc(C(=O)O)cc1 [Compound of Example 26] | 38.3

Stronger by IC50, values ahead:

Row | IC50 [nM] | Compound
22 | 26.1 | COc1c(CO)cc(S(F)(F)(F)(F)F)cc1NC(=O)NCc1ccccc1OCc1ccncc1 [Compound of Example 2]
23 | 32.5 | COc1ccc(C(F)(F)F)cc1NC(=O)NCc1cccc(OCc2cccnc2)c1 [Compound of Example 6]
24 | 23.3 | COc1ccc(C(F)(F)F)cc1NC(=O)NCc1ccccc1OCc1ccc(C(N)=O)cc1 [Compound of Example 18, 4-((2-((3-(2-methoxy-5-(trifluoromethyl)phenyl)ureido)methyl)phenoxy)methyl)benzamide]
25 | 13.5 | COc1c(CO)cc(C(F)(F)F)cc1NC(=O)NCc1ccccc1OCc1ccc(C(N)=O)cc1 [Compound of Example 20, 4-((2-((3-(3-(hydroxymethyl)-2-methoxy-5-(trifluoromethyl)phenyl)ureido)methyl)phenoxy)methyl)benzamide]
26 | 28.5 | COc1c(CO)cc(C(F)(F)F)cc1NC(=O)NCc1ccccc1OCc1cccc(C(N)=O)c1 [Compound of Example 22]
27 | 21 | COc1ccc(OC(F)(F)F)cc1NC(=O)NCc1ccccc1Oc1ccc(C(N)=O)cc1 [Compound of Example 27]
28 | 14.5 | COc1c(CO)cc(C(F)(F)F)cc1NC(=O)NCc1ccccc1Oc1ccc(C(=O)O)cc1 [Compound of Example 28]
29 | 5.98 | COc1c(CO)cc(C(F)(F)F)cc1NC(=O)NCc1ccccc1Oc1ccc(C(N)=O)cc1 [Compound of Example 29]
30 | 12.4 | COc1ccc(C(F)(F)F)cc1NC(=O)NCc1ccccc1Oc1ccc(C(=O)O)cc1 [Compound of Example 30]
31 | 11 | COc1ccc(C(F)(F)F)cc1NC(=O)NCc1ccccc1Oc1ccc(C(N)=O)cc1 [Compound of Example 31]
32 | 17.3 | NC(=O)c1ccc(Oc2ccccc2CNC(=O)Nc2cccc(C(F)(F)F)c2)cc1 [Compound of Example 32]
33 | 12.9 | NC(=O)c1ccc(Oc2ccccc2CNC(=O)Nc2cc(C(F)(F)F)ccc2OC2COC2)cc1 [Compound of Example 33, 4-(2-((3-(2-(oxetan-3-yloxy)-5-(trifluoromethyl)phenyl)ureido)methyl)phenoxy)benzamide]
34 | 22 | NC(=O)c1ccc(Oc2ccccc2CNC(=O)Nc2cc(OC(F)(F)F)ccc2OC2COC2)cc1 [Compound of Example 34, 4-(2-((3-(2-(oxetan-3-yloxy)-5-(trifluoromethoxy)phenyl)ureido)methyl)phenoxy)benzamide]
35 | 12.9 | NC(=O)c1ccc(Oc2ccccc2CNC(=O)Nc2cc(CO)cc(C(F)(F)F)c2)cc1 [Compound of Example 35]
36 | 13.2 | NC(=O)c1ccc(Oc2ccccc2CNC(=O)Nc2ccc(CO)c(C(F)(F)F)c2)cc1 [Compound of Example 36, 4-(2-((3-(4-(hydroxymethyl)-5-(trifluoromethyl)phenyl)ureido)methyl)phenoxy)benzamide]
37 | 11.7 | CN1CCN(Cc2cc(NC(=O)NCc3ccccc3Oc3ccc(C(N)=O)cc3)cc(C(F)(F)F)c2)CC1 [Compound of Example 37, 4-(2-((3-(3-((4-methylpiperazin-1-yl)methyl)-5-(trifluoromethyl)phenyl)ureido)methyl)phenoxy)benzamide]

Source: patent US10519106B2, “Urea derivative and use therefor” (Toray Industries, Inc., priority 2015, dated 2019)
